# Biological target: T1, AXL (human catalytic domain) (Homo sapiens, UniProt P30530)
# T1 construct: purchased Upstate Ltd. 14-512
# T1 sequence (P30530 473-894): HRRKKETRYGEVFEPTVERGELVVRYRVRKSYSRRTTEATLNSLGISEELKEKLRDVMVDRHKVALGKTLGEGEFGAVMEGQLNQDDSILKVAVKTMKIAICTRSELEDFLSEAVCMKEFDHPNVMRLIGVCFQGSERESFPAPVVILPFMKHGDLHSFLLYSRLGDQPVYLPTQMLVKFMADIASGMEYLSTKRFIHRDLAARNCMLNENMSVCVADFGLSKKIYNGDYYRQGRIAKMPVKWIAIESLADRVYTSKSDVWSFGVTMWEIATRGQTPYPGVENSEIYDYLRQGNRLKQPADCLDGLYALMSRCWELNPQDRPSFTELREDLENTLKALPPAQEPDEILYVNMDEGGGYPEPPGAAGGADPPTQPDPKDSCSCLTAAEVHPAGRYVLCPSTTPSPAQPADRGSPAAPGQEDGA
# Assay: AXL (human catalytic domain) Enzyme Activity Assay (IMAP fluorescence polarisation)
# Type: biochemical
# Settings: further data set (WW-001 through WW-169, XX-001 through XX-469, YY-001 through YY-016, ZZ-001 through ZZ-003); 150 μM ATP
# Procedure, shortened: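 Recombinant human AXL isoform 1 (aa473-894; final 15 nM) phosphorylated 100 nM fluorescein-CSK-tide with 150 μM ATP (KM) in HEPES pH 7.0/MgCl2/DTT buffer for 60 min at room temperature. IMAP fluorescence polarisation read after overnight binding; IC50 from 10-point 4-parameter logistic fits.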
row,SMILES,IC50 [nM]
1,"O=C(NCc1cccc(-c2cccc3nc(Nc4ccc(OCCN5CCCC5)cc4)nn23)c1)Nc1cccc(Cl)c1 [XX-348, 1-(3-Chloro-phenyl)-3-(3-{2-[4-(2-pyrrolidin-1-yl-ethoxy)-phenylamino]-[1,2,4]triazolo[1,5-a]pyridin-5-yl}-benzyl)-urea]",1000 to 10000
2,COCCn1cc(-c2cccc3nc(Nc4ccc(OCCN5CCCC5)cc4)nn23)cn1 [XX-349],100 to 1000
3,Cc1ccc(CCn2cc(-c3cccc4nc(Nc5ccc(OCCN6CCCC6)cc5)nn34)cn2)cc1 [XX-350],100 to 1000
4,N#CCCn1cc(-c2cccc3nc(Nc4ccc(OCCN5CCCC5)cc4)nn23)cn1 [XX-351],100 to 1000
5,Clc1cccc(Cn2cc(-c3cccc4nc(Nc5ccc(OCCN6CCCC6)cc5)nn34)cn2)c1 [XX-352],100 to 1000
6,CC(C)CCn1cc(-c2cccc3nc(Nc4ccc(OCCN5CCCC5)cc4)nn23)cn1 [XX-353],≤ 100
7,Clc1ccccc1Cn1cc(-c2cccc3nc(Nc4ccc(OCCN5CCCC5)cc4)nn23)cn1 [XX-354],100 to 1000
8,COc1ccc(-c2cccc3nc(Nc4ccc(N(C)C(=O)C(C)N5CCCC5)cc4)nn23)cc1 (stereo not shown) [XX-355],100 to 1000
9,c1cc(-c2cnn(CC3CCCCC3)c2)n2nc(Nc3ccc(OCCN4CCCC4)cc3)nc2c1 [XX-356],100 to 1000
10,CCN(CC)CCOc1cc(Nc2nc3cccc(-c4cccc(CO)c4)n3n2)ccn1 [XX-357],100 to 1000
11,CCN(CC)CCOc1cc(Nc2nc3cccc(-c4ccc5c(c4)OCO5)n3n2)ccn1 [XX-358],100 to 1000
12,CCN(CC)CCOc1cc(Nc2nc3cccc(-c4ccc(OC)c(F)c4)n3n2)ccn1 [XX-359],≤ 100
13,CCN(CC)CCOc1cc(Nc2nc3cccc(-c4ccc(OC(C)C)cc4)n3n2)ccn1 [XX-360],≤ 100
14,CCN(CC)CCOc1cc(Nc2nc3cccc(-c4ccc(OC)cc4)n3n2)ccn1 [XX-361],≤ 100
15,CCN(CC)CCOc1cc(Nc2nc3cccc(-c4ccc5[nH]ccc5c4)n3n2)ccn1 [XX-363],≤ 100
16,CCN(CC)CCOc1cc(Nc2nc3cccc(-c4cc5ccccc5o4)n3n2)ccn1 [XX-364],100 to 1000

row,SMILES,IC50 [nM]
1,Cc1ccc(-c2cccc3nc(Nc4cccc(C(=O)NCCN5CCCC5)c4)nn23)cc1F [XX-365],100 to 1000
2,FC(F)(F)Oc1cccc(Cn2cc(-c3cccc4nc(Nc5ccc(OCCN6CCCC6)cc5)nn34)cn2)c1 [XX-366],100 to 1000
3,Fc1cccc(Cn2cc(-c3cccc4nc(Nc5ccc(OCCN6CCCC6)cc5)nn34)cn2)c1 [XX-367],100 to 1000
4,COc1ccc(-c2cccc3nc(Nc4ccc(N(C)C(=O)C(C)N5CCOCC5)cc4)nn23)cc1 (stereo not shown) [XX-368],100 to 1000
5,COc1cccc(Cn2cc(-c3cccc4nc(Nc5ccc(OCCN6CCCC6)cc5)nn34)cn2)c1 [XX-369],100 to 1000
6,Cc1cccc(S(=O)(=O)NCc2cccc(-c3cccc4nc(Nc5ccc(OCCN6CCCC6)cc5)nn34)c2)c1 [XX-370],100 to 1000
7,O=C(NCc1cccc(-c2cccc3nc(Nc4ccc(OCCN5CCCC5)cc4)nn23)c1)Nc1ccccc1 [XX-371],100 to 1000
8,CC(C)(C)NC(=O)NCc1cccc(-c2cccc3nc(Nc4ccc(OCCN5CCCC5)cc4)nn23)c1 [XX-372],100 to 1000
9,CC(C)NC(=O)NCc1cccc(-c2cccc3nc(Nc4ccc(OCCN5CCCC5)cc4)nn23)c1 [XX-373],100 to 1000
10,CCS(=O)(=O)n1cc(-c2cccc3nc(Nc4ccc(OCCN5CCCC5)cc4)nn23)cn1 [XX-374],≤ 100
11,O=S(=O)(C1CC1)n1cc(-c2cccc3nc(Nc4ccc(OCCN5CCCC5)cc4)nn23)cn1 [XX-375],≤ 100
12,CC(=O)Nc1ccc(S(=O)(=O)n2cc(-c3cccc4nc(Nc5ccc(OCCN6CCCC6)cc5)nn34)cn2)cc1 [XX-376],100 to 1000
13,Cc1cccc(S(=O)(=O)n2cc(-c3cccc4nc(Nc5ccc(OCCN6CCCC6)cc5)nn34)cn2)c1 [XX-377],100 to 1000
14,O=S(=O)(c1ccccc1Cl)n1cc(-c2cccc3nc(Nc4ccc(OCCN5CCCC5)cc4)nn23)cn1 [XX-378],≤ 100
15,CCCCCCS(=O)(=O)n1cc(-c2cccc3nc(Nc4ccc(OCCN5CCCC5)cc4)nn23)cn1 [XX-379],100 to 1000

# Source: patent US8431596B2 (Cancer Research Technology Limited, priority 2007, dated 2013)
